From patent US20050175535A1 (CV Therapeutics, Inc., priority 2000, published 2005)

Columns and labels:
[1] = test system: rat isolated perfused heart; assay: Reversal time of coronary vasodilation in rat isolated perfused hearts; conditions: bolus, rat isolated perfused heart;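 note: each agonist bolused at its minimal concentration giving equal maximal coronary conductance rise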
Experimental: FIG. 10. Reversal of effect of agonist stimulation on CC. […] CC was measured at 8, 16 and 24 minutes after administration (FIG. 10A). […] R and N are the correlation coefficient and number of agonists, respectively.
The relationship between the affinity of agonists for the A2A receptor and the rate of reversal of agonist-mediated responses (coronary vasodilation in heart and cAMP accumulation in PC12 cells) upon termination of drug administration were determined. […] The duration of the coronary vasodilation in isolated rat hearts caused by adenosine, the CVT compounds, and other agonists measured as the time to 50% and 90% (t0.5 and t0.9, respectively) reversal of the increases in coronary conductance after termination of drug administration are summarized in Table 4.

[2] = Coronary and peripheral artery blood flow velocity, HR and MAP in anesthetized closed-chest dogs; format: in vivo; set-up: APV: unit not given here; conditions: for APV / MAP / HR: CVT-3146 (1 ug/kg)
Experimental: Mongrel dogs (either sex, 17-21 kg; n=6) were obtained from a local vendor (Barton, Oxford, N.J.). Blood flow velocity in the coronary and cranial circumflex arteries was measured using Doppler transducer-tipped guide wires 0.014″ in diameter (FloWire®, model 1400J) purchased from Cardiometrics, Inc., Mountain View, Calif. For the positioning of the FloWire, a Judkins left coronary guiding catheter (JL3.5, 8F; Cordis) was used. Vascular arterial angiography was performed using Hypaque-76 contrast fluid (Bracco Diagnostics, Inc., Princeton, N.J.; Lot #9H28899) and a mobile fluoroscopic unit (Philips, BV 29). Systemic arterial blood pressure was measured using an electronic transducer-tipped catheter (Millar).
Following the administration of heparin (20 U/kg+100 U/hr), the pressure transducer-tipped catheter was introduced through the left femoral artery and positioned in the descending aorta. The Doppler FloWire was introduced through the right femoral artery. A peripheral vein was cannulated for the administration of all drugs. […] The sequence of positioning of the Doppler catheter was reversed in consecutive experiments. […] All parameters were allowed to recover (>30 min) to their respective baseline values between two consecutive drug administrations. […] The effect of adenosine on both coronary and peripheral artery APV was studied in five of the six dogs.
The following parameters were monitored and recorded: Average peak coronary and peripheral artery blood flow velocity (APV), mean arterial blood pressure (MAP) (mmHg), and sinus cycle length (SCL; msec). Differences in measure parameters were tested for statistical significance using ANOVA and Student's t test corrected for multiple measurements. Data are expressed as the mean±SEM.

SMILES: CCCCCn1cc(-c2nc(N)c3ncn(C4O[C@@H](CO)[C@H](O)[C@@H]4O)c3n2)cn1 (some centres unmarked) [CVT-3033]
- t0.5, time to 50% reversal of the increase in coronary conductance [1]: 3.4 ± 0.5 min
- t0.9, time to 90% reversal of the increase in coronary conductance [1]: 8.4 ± 2.2 min

SMILES: CNC(=O)c1cnn(-c2nc(N)c3ncn(C4O[C@@H](CO)[C@H](O)[C@@H]4O)c3n2)c1 (some centres unmarked) [CVT-3146]
- time for all parameters to return to baseline post injection ([2]; CVT-3146 1 μg/kg, adenosine 200 or 300 μg/kg iv bolus, anesthetized dogs): ≤ 5 min
- APV ([2]; Coronary, time 1′, Baseline 49 ± 7): 100 ± 12
- MAP ([2]; Coronary, time 1′, Baseline 128 ± 7): 112 ± 7 mmHg
- HR ([2]; Coronary, time 1′, Baseline 171 ± 8): 186 ± 7
- APV ([2]; Coronary, time 1.5′, Baseline 49 ± 7): 97 ± 11
- MAP ([2]; Coronary, time 1.5′, Baseline 128 ± 7): 110 ± 7 mmHg
- HR ([2]; Coronary, time 1.5′, Baseline 171 ± 8): 186 ± 7
- APV ([2]; Coronary, time 2′, Baseline 49 ± 7): 88 ± 11
- MAP ([2]; Coronary, time 2′, Baseline 128 ± 7): 110 ± 7 mmHg
- HR ([2]; Coronary, time 2′, Baseline 171 ± 8): 185 ± 7
- APV ([2]; Coronary, time 3′, Baseline 49 ± 7): 81 ± 11
- MAP ([2]; Coronary, time 3′, Baseline 128 ± 7): 110 ± 6 mmHg
- HR ([2]; Coronary, time 3′, Baseline 171 ± 8): 185 ± 7
- APV ([2]; Coronary, time 4′, Baseline 49 ± 7): 75 ± 11
- MAP ([2]; Coronary, time 4′, Baseline 128 ± 7): 110 ± 6 mmHg
- HR ([2]; Coronary, time 4′, Baseline 171 ± 8): 183 ± 8
- APV ([2]; Coronary, time 5′, Baseline 49 ± 7): 72 ± 11
- MAP ([2]; Coronary, time 5′, Baseline 128 ± 7): 112 ± 6 mmHg
- HR ([2]; Coronary, time 5′, Baseline 171 ± 8): 183 ± 8
- APV ([2]; Coronary, time 6′, Baseline 49 ± 7): 65 ± 11
- MAP ([2]; Coronary, time 6′, Baseline 128 ± 7): 113 ± 6 mmHg
- HR ([2]; Coronary, time 6′, Baseline 171 ± 8): 182 ± 8
- APV ([2]; Coronary, time 7′, Baseline 49 ± 7): 63 ± 12
- MAP ([2]; Coronary, time 7′, Baseline 128 ± 7): 115 ± 6 mmHg
- HR ([2]; Coronary, time 7′, Baseline 171 ± 8): 181 ± 8
- APV ([2]; Coronary, time 8′, Baseline 49 ± 7): 55 ± 11
- MAP ([2]; Coronary, time 8′, Baseline 128 ± 7): 117 ± 6 mmHg
- HR ([2]; Coronary, time 8′, Baseline 171 ± 8): 180 ± 8
- APV ([2]; Coronary, time 9′, Baseline 49 ± 7): 55 ± 11
- MAP ([2]; Coronary, time 9′, Baseline 128 ± 7): 119 ± 6 mmHg
- HR ([2]; Coronary, time 9′, Baseline 171 ± 8): 177 ± 9
- APV ([2]; Coronary, time 10′, Baseline 49 ± 7): 53 ± 11
- MAP ([2]; Coronary, time 10′, Baseline 128 ± 7): 120 ± 6 mmHg
- HR ([2]; Coronary, time 10′, Baseline 171 ± 8): 176 ± 9
- APV ([2]; Coronary, time 10″, Baseline 49 ± 7): 84 ± 4
- HR ([2]; Coronary, time 10″, Baseline 171 ± 8): 177 ± 8
- APV ([2]; Coronary, time 20″, Baseline 49 ± 7): 106 ± 8
- MAP ([2]; Coronary, time 20″, Baseline 128 ± 7): 116 ± 9 mmHg
- HR ([2]; Coronary, time 20″, Baseline 171 ± 8): 186 ± 9
- APV ([2]; Coronary, time 30″, Baseline 49 ± 7): 109 ± 10
- MAP ([2]; Coronary, time 30″, Baseline 128 ± 7): 117 ± 7 mmHg
- HR ([2]; Coronary, time 30″, Baseline 171 ± 8): 188 ± 7
- APV ([2]; Peripheral, time 1′, Baseline 34 ± 8): 42 ± 4
- MAP ([2]; Peripheral, time 1′, Baseline 116 ± 8): 102 ± 6 mmHg
- HR ([2]; Peripheral, time 1′, Baseline 162 ± 9): 182 ± 7
- APV ([2]; Peripheral, time 1.5′, Baseline 34 ± 8): 42 ± 4
- MAP ([2]; Peripheral, time 1.5′, Baseline 116 ± 8): 99 ± 7 mmHg
- HR ([2]; Peripheral, time 1.5′, Baseline 162 ± 9): 184 ± 7
- APV ([2]; Peripheral, time 2′, Baseline 34 ± 8): 40 ± 4
- MAP ([2]; Peripheral, time 2′, Baseline 116 ± 8): 98 ± 7 mmHg
- HR ([2]; Peripheral, time 2′, Baseline 162 ± 9): 187 ± 8
- APV ([2]; Peripheral, time 3′, Baseline 34 ± 8): 40 ± 4
- MAP ([2]; Peripheral, time 3′, Baseline 116 ± 8): 97 ± 7 mmHg
- HR ([2]; Peripheral, time 3′, Baseline 162 ± 9): 187 ± 8
- APV ([2]; Peripheral, time 4′, Baseline 34 ± 8): 39 ± 4
- MAP ([2]; Peripheral, time 4′, Baseline 116 ± 8): 100 ± 6 mmHg
- HR ([2]; Peripheral, time 4′, Baseline 162 ± 9): 186 ± 8
- APV ([2]; Peripheral, time 5′, Baseline 34 ± 8): 37 ± 5
- MAP ([2]; Peripheral, time 5′, Baseline 116 ± 8): 101 ± 6 mmHg
- HR ([2]; Peripheral, time 5′, Baseline 162 ± 9): 185 ± 8
- APV ([2]; Peripheral, time 10″, Baseline 34 ± 8): 34 ± 4
- MAP ([2]; Peripheral, time 10″, Baseline 116 ± 8): 114 ± 9 mmHg
- HR ([2]; Peripheral, time 10″, Baseline 162 ± 9): 167 ± 6
- APV ([2]; Peripheral, time 20″, Baseline 34 ± 8): 38 ± 4
- MAP ([2]; Peripheral, time 20″, Baseline 116 ± 8): 107 ± 8 mmHg
- HR ([2]; Peripheral, time 20″, Baseline 162 ± 9): 177 ± 7
- APV ([2]; Peripheral, time 30″, Baseline 34 ± 8): 41 ± 4
- MAP ([2]; Peripheral, time 30″, Baseline 116 ± 8): 111 ± 6 mmHg
- HR ([2]; Peripheral, time 30″, Baseline 162 ± 9): 183 ± 8
